Source: paper PMC9022420 (Scientific Reports, 2022)
Where “and” joins values, the source holds several entries; their conditions need not be identical. Equal values may be shown once.

Legend:
[1] = test system: murine hepatitis virus A59 strain (MHV-A59); assay: Photodynamic inactivation of MHV-A59 (TCID50 assay in 17Cl-1 cells); format: cell-based
Method: The efficacy of the flavins were enumerated utilizing modified methods from ISO 18,184 and Leibowitz et al.[56] […] 100 µM working stock solutions were then created by diluting each DMSO solution into PBS. To control for the effect of DMSO on MHV-A59, DMSO was diluted into PBS at the same concentration. A white light apparatus was set up to cover a 4 × 5 (row x column) area of a 96-well plate with the same level of light intensity (1 × 10^5 lx). The stock solutions were then diluted in replicates of four to a total of 180 µl in PBS at 1, 5, and 10 µM concentrations for each sample. Virus stocks of MHV-A59 were thawed on ice prior to use. 20 µl of MHV-A59 stock (1.4 × 10^9 PFU/ml) was then mixed into each well, and the 4 × 5 well matrix was treated with the light or incubated in the dark at room temperature for a specified time (5, 10, or 15 min).
After treatment, the samples were mixed into 320 µl of Gibco Difco™ Beef Extract (1.5% w/v beef extract in ddH2O; Life Technologies) and rolled for 15 min to chelate any free ions in the solution. The samples then were serially diluted (10^0–10^–7) in infectivity media (Dulbecco’s modified Eagle’s medium low glucose 1 g/L (DMEM, Life Technologies) supplemented with 2.5% fetal bovine serum (Merck), 3% tryptose phosphate broth (Merck), 1 × non-essential amino acids (Gibco), 1 × antibiotic–antimycotic (Thermo Fisher Scientific) and 1 × L-Glutamine (Gibco]) and added in triplicate to 17Cl-1 cell plates. For each sample or control there were 4 replicate treatments (in light or dark); each treatment replicate was plated in triplicate. Infected 17Cl-1 plates were incubated at 37 °C in a 5% CO2 atmosphere for 24 h. Plates were scored for cytopathic effect (CPE) by microscopy and viral titres were determined by the Reed and Muench 50% tissue culture infectious dose (TCID50) end point method. Outliers were removed from the four replicates using an outlier test. The full protocol was repeated in triplicate on different days to account for any variability in the assay.

[2] = Flavin photostability in PBS under white LED irradiation; format: physicochemical; conditions: 100 µM in PBS, white LED 1 × 10^5 lx, 30 min irradiation
Excerpt: After successful synthesis and initial characterisation, we monitored the photostability of the compounds in PBS (1x, pH 7.4) which was used for PDI assays as distilled or ultrapure water destabilises bacterial cells and coronaviruses through osmotic pressures[37],[38], thereby augmenting inactivation results. […] This yields lumichrome as the major degradation product which can only act as a PS under UV-irradiation[40]. […] However, it appears that guanidino substitution in our case improves the photostability.
Figure S4: (A) Flavin photostability (100 µM) in PBS (0.1% DMSO) irradiated with 1x105 lx (35 mW/cm2) where A
= Abs at 450 nm and A0 = Abs at 450 nm at 0 min.
photostability. Experiments were performed using a quartz cuvette and measured using an Agilent Cary 300
(1 picture or pasted object on this page, not shown here)

E. coli BL21(DE3) = assay: Photodynamic inactivation of E. coli (CFU counting); format: cell-based
Method: After an overnight aerobic culture in LB broth at 37 °C with shaking at 225 rpm, the resulting E. coli were centrifuged at 2,500 rpm for 10 min. The pellet was resuspended in PBS (Sigma, 1x, pH 7.4) to an OD600 value of 0.6 (~ 1 × 10^8 bacteria per ml). […] Aliquots of negative controls (0.5% DMSO in PBS; PBS only) and 100 μM flavin-bacteria samples were covered in foil to remain in dark, while all samples were plated onto a 96-well plate and exposed to white LED irradiation (1 × 10^5 lx) for 15 min. After 15 min of irradiation or darkness, each sample was serially diluted to its respective, appropriate dilution and plated onto an LB agar plate with 50 μg/mL kanamycin. Plates were incubated overnight at 37 °C in the dark. Survival of bacteria was determined by counting colony forming units (CFUs) the next day.
For time point data, aliquots of 100 μM flavin-bacteria solutions were taken at 5-min increments of irradiation (0, 5, 10, and 15 min) and evaluated similarly as above. Time point experiment with one-minute increments, between 0 and 5 min, were conducted for 100 μM F4-bacteria samples.

[3] = Singlet oxygen quantum yield determination; format: physicochemical; conditions: in MeCN; for φΔ singlet oxygen quantum yield: calculated using Ru(bpy)3^2+ as the reference
WI-38 cells = assay: 24 h MTS cytotoxicity assay, WI-38; format: cell-based; conditions: Homo sapiens, 24 h incubation, dark
Method: (§1) The MTS tetrazolium compound is reduced by cells into a coloured formazan product which is soluble in cell culture media. It can be detected colorimetrically between 450 and 540 nm with the measured absorbance directly proportional to the amount of metabolically active cells in culture. Cells were seeded into clear 96-well plates containing 10,000 cells/well in 100 µL complete growth medium and cultured for 24 h at 37 °C and 5% CO2. […] After further 24 h incubation at 37 °C and 5% CO2, 20 µL of CelTiter 96® AQueous One Solution (Promega) was added into each well and incubated at 37 °C, 5% CO2 for 1–4 h, according to the manufacturer’s instruction. The absorbance of each well was measured at 490 nm using a plate reader (Spark, Tecan). Control measurements included negative control of cells with DMEM, cells with DMEM containing 0.1% DMSO, cell-free culture media (blank) and cell-free sample dilutions in culture media to evaluate potential sample interferences with MTS assay. All experiments were conducted in biological triplicates. The percentage cell viability was calculated according to Eq. (1):1 Cell viability(%)=100×Absorbanceoftreatedcells-Absorbanceofblank/Absorbanceofcontrol-Absorbanceofblank

[4] = test system: ssRNA (EGFP-encoding mRNA, ~ 1 k nt); assay: ssRNA photocleavage, agarose gel electrophoresis; format: biochemical; conditions: 10 µM flavin, 15 min white LED, PBS 0.1% DMSO
Method: A 20 µL aliquot was taken after 15 min of white LED irradiation (1 × 10^5 lx). Prior to loading, 2 µL of 6X Orange-G loading dye in glycerol were added to the aliquot and mixed vigorously. The gel was electrophoresed at 80 V for 35 min with 1% agarose gels in 1X Tris–acetate-EDTA (TAE) buffer. Gels were then imaged in a Syngene G:BOX Gel Documentation System and band % quantification was performed using ImageJ Gel Analyzer.

17Cl-1 cells = assay: 24 h MTS cytotoxicity assay, 17Cl-1; format: cell-based, murine; conditions: Mus musculus, 24 h incubation, dark
Method: as §1

[5] = 1 µM flavin, 10 min irradiation (21.0 J/cm^2)
[6] = 5 µM flavin, 10 min irradiation
[7] = 10 µM flavin, 15 min irradiation
[8] = 100 µM flavin, 10 min irradiation
[9] = 10 µM flavin, 10 min irradiation
[10] = 100 µM flavin, 5 min irradiation (10.5 J/cm^2)

Structure (SMILES) | MHV-A59 log10 reduction in viral titre [1, 5] [log10] | MHV-A59 viral load reduction [1, 6] [%] | photodecomposition / degradation [2] | E. coli log10 reduction of CFUs (E. coli BL21(DE3); [7]) [log10] | E. coli log10 reduction of CFUs (E. coli BL21(DE3); [8]) [log10] | ФΔ singlet oxygen quantum yield [3] [%] | φΔ singlet oxygen quantum yield [3] | IC50 (WI-38 cells) [µM] | % cleaved ssRNA [4] [%] | IC50 (17Cl-1 cells) [µM] | MHV-A59 log10 reduction in viral titre [1, 6] [log10] | MHV-A59 log10 reduction in viral titre [1, 9] [log10] | E. coli log10 reduction of CFUs (E. coli BL21(DE3); [10]) [log10] | other results
CCCCCCCCn1c(=O)nc2n(CCNC(=N)N)c3cc(Br)c(Br)cc3nc-2c1=O [Flavin F4] | 3.4 | > 99.99 | ~30% | 2.8 | 8.7 | 62 | 0.62 ± 0.10 | > 100 | 42 | 50.9 | – | – | – | viral inactivation, log10 reduction ([1]; 15 min irradiation at 1 μM): > 3 log10; E. coli reduction of bacteria (E. coli BL21(DE3); 100 µM flavin, 1 min irradiation): > 99.99%; E. coli log10 reduction of CFUs (E. coli BL21(DE3); 100 µM flavin, 1 min irradiation (2.10 J/cm^2), calculated vs t0 = 7.9): 4.1 log10 and > 4 log10; bacterial inactivation, log10 reduction (E. coli BL21(DE3); 15 min irradiation at 11 μM): > 3 log10
CCCCCCCCn1c(=O)nc2n(CCNC(=N)N)c3cc(C)c(C)cc3nc-2c1=O [Flavin F2] | 2.1 | > 99.9 | approximately 10% | – | 5.9 | 55 | 0.55 ± 0.10 | > 100 | 46 | > 100 | 3.9 | 3.8 | 3.4 | E. coli reduction of bacteria (E. coli BL21(DE3); 100 µM flavin, 5 min irradiation): > 99.9%
CCCCCCCCn1c(=O)nc2n(CCN)c3cc(Br)c(Br)cc3nc-2c1=O [Flavin F3] | 2.1 | > 99.99 | ~60% | 0.4 | 1.7 | 85 | 0.85 ± 0.09 | 30.9 | 35 | 3.66 | 4.1 | 4.8 | 1.3 | E. coli log10 reduction of CFUs (E. coli BL21(DE3); 100 µM flavin, 15 min irradiation): 1.8 log10
CCCCCCCCn1c(=O)nc2n(CCN)c3cc(C)c(C)cc3nc-2c1=O [Flavin F1] | – | – | around 40% | 0.2 | 0.1 | – | 0.49 ± 0.12 | 96.1 | 12 | 70.2 | 1.7 | 2.1 | 0.1 | MHV-A59 log10 reduction in viral titre ([1]; 10 µM flavin, 5 min irradiation (10.5 J/cm^2)): 1.2 log10; MHV-A59 log10 reduction in viral titre ([1]; 10 µM flavin, 15 min irradiation (31.5 J/cm^2)): 2.2 log10
